Data on 37 compounds can be found in PubChem BioAssay (NCI).

Structures are written as SMILES.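 Results reflect a 48-hour exposure of cells in 96-well plates to compound at five concentrations. GI50 marks 50% less growth. TGI: concentration producing complete growth inhibition.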

For this assay, the system named is MDA-MB-468 breast. Put plainly: NCI tumour cell line growth inhibition, 48 h.

As for `O=C(Oc1cccnc1)c1ccsc1Nc1ccnc(C(F)(F)F)c1`, the GI50 was 1.8 µM and the TGI worked out at 4.4 µM.

Turning to `CC(C)=CCC/C(C)=C/CC/C(C)=C/CC/C=C(\C)CC/C=C(\C)CCC(=O)Nc1ccn(C2OC(CO)C(O)C2(F)F)c(=O)n1` (centres undefined), the GI50 was 0.185 µM and the TGI was 35.8 µM.

As for `CN1CCC(n2cnc(-c3ccc(F)cc3)c2-c2ccnc(N)n2)CC1`, the GI50 was 3.32 µM and the TGI was found to be 21.1 µM.

With `CCOP(=O)(OCC)OC[C@]12CC[C@@H](C)[C@H](C)C1C1=CC[C@@H]3[C@@]4(C)CCCNC(C)(C)[C@@H]4CC[C@@]3(C)[C@]1(C)CC2` (some centres undefined), the GI50 was 1.39 µM and the TGI worked out at 2.91 µM.

As for `CC1(C)N=C(N)N=C(N)N1c1ccc(CCCCc2ccc(S(=O)(=O)F)cc2)c(Cl)c1`, the GI50 was 0.281 µM and the TGI is 10.8 µM.

With `CCN(Cc1ccc(Cl)s1)c1ccc(CO)c(Cl)c1`, the GI50 was 0.0193 µM and the TGI was 0.0526 µM.

For the compound `COc1ccc(-c2oc3cc(O)cc(O)c3c(=O)c2OC)cc1O`, the GI50 is 0.565 µM and the TGI was determined as 3.45 µM.

Regarding `COc1ccc(OC)c(Cn2cc3c(c2)-c2oncc2CC3)c1`, the GI50 is 1.2 µM and the TGI came out at 4.37 µM.

With `CCN1C(=O)N(CC)C2C1NN=c1s/c(=C\c3ccccc3Br)c(=O)n12` (centres undefined), the GI50 is 0.0352 µM and the TGI is 1.15 µM.

As to `CN1CCN(Cc2ccc(NC(=O)c3[nH]ncc3Nc3ncnc4sc5c(c34)CCCC5)cc2)CC1`, the GI50 is 0.476 µM and the TGI worked out at 2.3 µM.

On to `CC(C)(C)c1ccc(C(=O)Nc2sc3c(c2C(N)=O)CCC(=O)C3)cc1`, for which the GI50 is 0.506 µM and the TGI is 2.09 µM.

As to `O=C1NC(=O)C(c2cccc(Cl)c2)=C1Nc1ccc(O)c(Cl)c1`, the GI50 was 5.94 µM and the TGI is over 20.3 µM.

Turning to `COc1ccc2c(c1)OC1=C(C(=O)OC1)C2c1cc(OC)c2c(c1)OCO2` (centres undefined), the GI50 was 0.0264 µM and the TGI was determined as 0.0987 µM.

As to `O=c1[nH]cnc2c(C3NC(CO)C(O)C3O)c[nH]c12` (centres undefined), the GI50 was over 100 µM and the TGI was over 100 µM.

As to `COc1ccc(C(=O)N2c3ccccc3Sc3ccccc32)c(OC)c1`, the GI50 was 0.327 µM and the TGI is 56.1 µM.

For the compound `OC(c1cc2cc(Cl)c(Cl)cc2c2cc(C(F)(F)F)ccc12)C1CCCCN1` (centres undefined), the GI50 was 1.58 µM and the TGI is 2.94 µM.

Regarding `CCCCn1c(=O)c2c(nc3n2CCCN3CCc2ccc(OCC(=O)NCCN(CC)CC)cc2)n(CCCC)c1=O`, the GI50 is 1.73 µM and the TGI stood at 6.86 µM.

`CC1OC(O[C@H]2/C=C/C=C/C=C/C=C/C=C/C=C/C=C/[C@H](C)[C@@H](O)[C@@H](C)[C@H](C)OC(=O)CC(O)CC(O)CCC(O)C(O)CC(O)C[C@]3(O)C[C@H](O)C(C(=O)O)C(C2)O3)C(O)[C@H](N)C1O` (some centres undefined): the GI50 is 14.9 µM and the TGI is 32.4 µM.

On to `COc1cc(/C=C/[N+](=O)[O-])cc(Br)c1OC`, for which the GI50 is 1.59 µM and the TGI is 3.28 µM.

For the compound `O=C(Nc1cccc(Nc2ncc(Br)c(NCCc3cnc[nH]3)n2)c1)N1CCCC1`, the GI50 was 0.637 µM and the TGI was 9.09 µM.

`CC(=O)Oc1ccccc1C(=O)/C=C/c1cccc([N+](=O)[O-])c1`: the GI50 was 2.03 µM and the TGI came to 4 µM.

For `O=[N+]([O-])c1cc(S(=O)(=O)Oc2ccccc2)ccc1Cl`, the GI50 was 1.83 µM and the TGI is 3.64 µM.

For `CCN1C(=O)N(CC)C2C1NN=c1s/c(=C3\C(=O)N(CCc4ccccc4)c4ccccc43)c(=O)n12` (centres undefined), the GI50 is 0.338 µM and the TGI was 2.37 µM.

Turning to `Cn1cc(-c2nonc2-c2cn(C)c3ccccc23)c2ccccc21`, the GI50 is 0.492 µM and the TGI was over 32.4 µM.

Consider `Cc1cccc(NC(=O)c2sc3nc4c(cc3c2N)CN(Cc2ccccc2)CC4)c1C`, for which the GI50 is 0.151 µM and the TGI was 11.6 µM.

Take `COc1ccc2cc(-c3c(-c4ccncc4)nc(-c4ccc(S(C)=O)cc4)n3C)ccc2c1` (centres undefined): the GI50 is 3.11 µM and the TGI is over 25 µM.

`C[C@@H]1O[C@@H](O[C@H]2CC[C@@]3(C)[C@H](CCC4[C@@H]3C(O)C[C@]3(C)[C@@H](c5ccc(=O)oc5)CC[C@]43O)C2)[C@H](O)[C@H](O)[C@H]1O` (some centres undefined): the GI50 is 0.00594 µM and the TGI worked out at 0.0121 µM.

Regarding `CCN(CCO)CC(C)Nc1ccc([N+](=O)[O-])c2sc3ccccc3c(=O)c12` (centres undefined), the GI50 was 1.68 µM and the TGI is 7.29 µM.

For the compound `CCCCCn1sc(=O)n(Cc2ccc(CNC(=O)OCc3ccc4cccc(O)c4n3)cc2)c1=O`, the GI50 was 1.71 µM and the TGI is 3.56 µM.

As for `COc1cc2c(c(OC)c1OC)-c1ccc(SC)c(=O)cc1[C@@H](NC1OC(CO)C(O)C(O)C1O)CC2` (some centres undefined), the GI50 was 0.0343 µM and the TGI was over 100 µM.

Take `COc1ccc(C2[C@@H](Cl)C(=O)N2c2cc(OC)c(OC)c(OC)c2)cc1Cl` (some centres undefined): the GI50 is 0.201 µM and the TGI came to 0.963 µM.

Turning to `COc1ccc(/C=N/NC(=O)Cn2c(-c3ccc(S(C)(=O)=O)cc3)nc3cc(Cl)ccc32)cc1`, the GI50 is 1.51 µM and the TGI amounted to 9.14 µM.

`Cc1c(C2=C(c3cn(C)c4ccccc34)C(=O)NC2=O)c2ccccc2n1C`: the GI50 is 0.921 µM and the TGI was over 22.5 µM.

With `N#CN1CC[C@H](C(=O)Nc2ncc(-c3ccncc3)s2)C1`, the GI50 was under 0.0156 µM and the TGI was under 0.0282 µM.

With `Cc1nc2ccccc2c(/C=C/c2ccc(Br)cc2)c1C(=O)/C=C/c1ccccc1`, the GI50 was 1.98 µM and the TGI amounted to 4.2 µM.

In the case of `COC(=O)c1nc(-c2ccccc2)oc1S(=O)(=O)n1nc(C)cc1N`, the GI50 is 3.98 µM and the TGI turned out to be 16.9 µM.

For the compound `CC(C)(C)CN1CCn2c(nc3c(N)nccc32)S1`, the GI50 was 5.38 µM and the TGI came out at 50.3 µM.
